Test results reported in patent publication US20210161868A1, “ANTI-INFLAMMATORY THERAPY IN ARRHYTHMOGENIC CARDIOMYOPATHY (ACM)” (Beth Israel Deaconess Medical Center, Inc., priority 2018, published 2021).
“Also recorded” adds a separate entry of the source.

Experiments:
[1] = system: ACM mice; experiment: Arrhythmias in ACM mice treated with SB216763 (previous unpublished observations); format: in vivo
[2] = system: neonatal rat ventricular myocytes (NRVMs) expressing JUP^2157del2; conditions: NRVMs expressing mutant plakoglobin, previous reports; cited from earlier work
[3] = system: models of ACM; conditions: multiple in vitro and in vivo models, human iPSC-cardiac myocytes; cited from earlier work

Structure (SMILES): Cn1cc(C2=C(c3ccc(Cl)cc3Cl)C(=O)NC2=O)c2ccccc21 [SB216763]
- time to return of arrhythmias after cessation of treatment ([1]; ACM mice): ≤ 48 h
- time to cessation of arrhythmias ([1]; ACM mice under treatment): ≤ 24 h
- in vitro ACM features (protein redistribution, apoptosis, cytokines) [2]: blocked; also recorded: normalized
- full ACM disease phenotype [3]: prevent and/or reverse
